In patent publication US9714249B2 (Novartis AG, priority 2013, dated 2017):

Assays:
BRD3 (His-Brd3(20-477)) = BRD3 (His-Brd3(20-477)) (Homo sapiens (Human), UniProt Q15059); test: TR-FRET in-vitro binding assay for BRD3; conditions: acetyl-histone H4 peptide
Method: All assays were performed in 384 well microtiter plates. Each assay plate contained 8-point serial dilutions for 40 test compounds, plus 16 high- and 16 low controls. Liquid handling and incubation steps were done on an Innovadyne Nanodrop Express equipped with a robotic arm (Thermo CatX, Perkin Elmer/Caliper Twister II) and an incubator (Liconic STX40, Thermo Cytomat 2C450). The assay plates were prepared by addition of 50 nl per well of compound solution in 90% DMSO HummingBird nanodispenser (Zinsser Analytic). The assay was started by stepwise addition of 4.5 μl per well of bromo domain protein (50 mM HEPES, pH 7.5, 0.005% Tween20, 0.1% BSA, 50 mM NaCl, 45 nM His-Brd2(60-472) or 45 nM His-Brd3(20-477) or 45 nM His-Brd4(44-477) all proteins produced in-house) and 4.5 μl per well of peptide solution (50 mM HEPES, pH 7.5, 0.005% Tween20, 0.1% BSA, 50 mM NaCl, 60 nM acetyl-histone H4 (AcK 5, 8, 12, 16) (Biosyntan GmbH)). Reactions were incubated at 30° C. for 35 minutes. Subsequently 4.5 μl per well detection mix (50 mM HEPES, pH 7.5, 0.005% Tween20, 0.1% BSA, 50 mM NaCl, 3 nM Eu-labeled anti-His6 antibody, 21 nM streptavidin-allophycocyanin) were added. After 35 minutes incubation at 30° C., plates were measured in a Perkin Elmer EnVision multilabel reader. Concentrations causing 50% inhibition (1050) values were determined from percent inhibition values at different compound concentrations by non-linear regression analysis.
Test compounds were dissolved in DMSO (10 mM) and transferred into 1.4 mL flat bottom or V-shaped Matrix tubes carrying a unique 2D matrix. The stock solutions were stored at […] if not used immediately. For the test procedure the vials were defrosted and identified by a scanner whereby a working sheet was generated that guided the subsequent working steps. Compound dilutions were made in 96 well plates. This format enabled the assay of maximally 40 individual test compounds at 8 concentrations (single points) including 4 reference compounds, if desired (known BET inhibitors from the prior art, for this and other assays of the type disclosed herein). The dilution protocol included the production of “pre-dilution plates”, “master plates” and “assay plates”.
Pre-dilution plates: 96 polypropylene well plates were used as pre-dilution plates. A total of 4 pre-dilution plates were prepared including 10 test compounds each on the plate positions A1-A10, one standard compound at A11 and one DMSO control at A12. All dilution steps were done on a HamiltonSTAR robot. Master plates: 30 μL of individual compound dilutions including standard compound and controls of the 4 “pre-dilution plates” were transferred into a 384 “master plate” including the following concentrations 10000, 3003, 1000, 300, 100, 30, 10 and 3 μM, respectively in 90% of DMSO. Assay plates: Identical “assay plates” were then prepared by pipetting 50 nL each of compound dilutions of the “master plates” into 384-well “assay plates” by means of a HummingBird 384-channel dispenser. These plates were used directly for the assay which was performed in a total volume of 13.55 μL. This led to a final compound concentration of 37, 11, 3.7, 1.1, 0.37, 0.11, 0.037 and 0.011 μM and a final DMSO concentration of 0.37% in the assay. Cell Growth Inhibition Assay

THP-1 cells = test: Cell growth inhibition assay (CellTiter-Glo), THP-1; assay type: cell-based, human; conditions: THP-1, 4 days; for GI50: Homo sapiens, 96 h, half-maximal growth inhibition; for THP-1 TGI: total growth inhibition
Method: (§1) The human leukemia cell lines MV-4-11, THP-1 and K-562 were employed to characterize the effect of BET inhibitors on cellular proliferation and viability. Cells were obtained from the American Type Culture Collection (ATCC) and cultured at 37° C. in a humidified 5% CO2 incubator in the following media: MV-4-11: DMEM high glucose (Animed #1-26F01-I), 10% FCS (Animed #2-01F26-I), 4 mM L-Glutamine (Animed #5-10K50), 1 mM Sodium Pyruvate (Animed # G03625P), 1× Penicillin-Streptomycin (Animed # F12478P); K-562: Iscove's MEM (Animed #1-28F16-I), 10% FCS (Animed #2-01F26-I), 4 mM L-Glutamine (Animed #5-10K50), 1× Penicillin-Streptomycin (Animed # F12478P); THP-1: RPMI-1640 (Animed #1-41F01-I), 10% FCS (Animed #2-01F26-I), 2 mM L-Glutamine (Animed #5-10K50), 10 mM HEPES (Animed #5-31F100), 1 mM Sodium Pyruvate (Animed # G03625P), 1× Penicillin-Streptomycin (Animed # F12478P). The AML lines MV-4-11 and THP-1 are very sensitive to BET inhibitors and show massive cell death upon BET inhibition (Zuber et al., Nature, 478 (2011), 524-8). Compound-mediated suppression of cell proliferation/viability was assessed by quantification of cellular ATP levels using the CellTiter-Glo (CTG) reagent (Promega). Briefly, cells were seeded in 20 μl fresh medium into 384-well plates, followed by addition of 5 μl medium containing compound dilutions at 5-fold their final intended concentration. Dose-response effects were assessed by 3-fold serial dilutions of the test compound, starting at 10 μM. Following incubation of the cells for 4 days at 37° C. and 5% CO2, the effect of inhibitors on cell viability was quantified following addition of 20 μl CTG and luminescence quantification (integration time: 100 ms) as per vendor manual, using a correspondingly equipped Tecan M200 multi-mode platereader (TECAN, Switzerland). For data analysis, the assay background value determined in wells containing medium, but no cells, was subtracted from all data points. To enable differentiation of cytotoxic from cytostatic compounds, the number of viable cells is assessed relative to that observed at the time of compound addition using a separate cell plate (day 0). The effect of a particular test compound concentration on cell proliferation/viability is expressed as percentage of the background- and day 0-corrected luminescence reading obtained for cells treated with vehicle only (DMSO, 0.1% final concentration), which is set as 100%, whereas that luminescence reading for wells containing medium is set as −100%. Compound concentrations leading to half-maximal (1050) and total growth inhibition (TGI) were determined using standard four parameter curve fitting.

K-562 cells = test: Cell growth inhibition assay (CellTiter-Glo), K-562; assay type: cell-based, human; conditions: K-562, 4 days; for GI50: Homo sapiens, K562, 96 h, half-maximal growth inhibition; for K-562 TGI: total growth inhibition
Method: as §1

MV-4-11 cells = test: Cell growth inhibition assay (CellTiter-Glo), MV-4-11; assay type: cell-based, human; conditions: MV-4-11, 4 days; for GI50: Homo sapiens, MV4-11, 96 h, half-maximal growth inhibition; for MV-4-11 TGI: total growth inhibition
Method: as §1

BRD3 (His-Brd3(20-477)), sequence (Q15059 20-477, species assumed): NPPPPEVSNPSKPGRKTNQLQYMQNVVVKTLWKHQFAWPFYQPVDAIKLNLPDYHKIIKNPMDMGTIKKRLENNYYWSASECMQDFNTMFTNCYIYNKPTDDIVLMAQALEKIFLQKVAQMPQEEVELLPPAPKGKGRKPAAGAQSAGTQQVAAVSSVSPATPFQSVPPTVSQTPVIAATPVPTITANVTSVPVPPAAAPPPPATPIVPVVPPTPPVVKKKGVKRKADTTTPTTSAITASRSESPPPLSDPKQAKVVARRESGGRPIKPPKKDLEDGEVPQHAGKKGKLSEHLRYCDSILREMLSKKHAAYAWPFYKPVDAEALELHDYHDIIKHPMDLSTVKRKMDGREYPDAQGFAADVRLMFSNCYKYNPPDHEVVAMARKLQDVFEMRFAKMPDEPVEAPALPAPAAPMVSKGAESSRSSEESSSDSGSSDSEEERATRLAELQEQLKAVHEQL

Structure (SMILES)	IC50 (BRD3 (His-Brd3(20-477)))	GI50 (THP-1 cells)	GI50 (K-562 cells)	GI50 (MV-4-11 cells)	THP-1 TGI (THP-1 cells)	K-562 TGI (K-562 cells)	MV-4-11 TGI (MV-4-11 cells)
Cc1nn(C(C)C)c2c1C(=O)N(c1cc(C)c(=O)n(C)c1)C2c1ccc(Cl)cc1 (stereo not shown) [Example 12, 6-(4-chlorophenyl)-5-(1,5-dimethyl-6-oxo-1,6-dihydropyridin-3-yl)-1-isopropyl-3-methyl-5,6-dihydropyrrolo[3,4-c]pyrazol-4(1H)-one]	46 nM	62.2 nM	193 nM	19.1 nM	112 nM	>10000 nM	37.4 nM
COc1ccc(-n2nc(C)c3c2C(c2ccc(Cl)cc2)N(c2cc(C)c(=O)n(C)c2)C3=O)cc1 (stereo not shown) [Example 13, 6-(4-chlorophenyl)-5-(1,5-dimethyl-6-oxo-1,6-dihydropyridin-3-yl)-1-(4-methoxyphenyl)-3-methyl-5,6-dihydropyrrolo[3,4-c]pyrazol-4(1H)-one]	75.5 nM	69.8 nM	484 nM	30 nM	119 nM	>10000 nM	56.2 nM
COc1ncc(-n2nc3c(c2C)C(=O)N(c2cc(C)c(=O)n(C)c2)C3c2ccc(Cl)cc2)c(OC)n1 (stereo not shown) [Example 14, 6-(4-chlorophenyl)-2-(2,4-dimethoxypyrimidin-5-yl)-5-(1,5-dimethyl-6-oxo-1,6-dihydropyridin-3-yl)-3-methyl-5,6-dihydropyrrolo[3,4-c]pyrazol-4(2H)-one]	74 nM	219 nM	615 nM	122 nM	352 nM	>10000 nM	203 nM
COc1ncccc1-c1nn(C)c2c1C(=O)N(c1cc(C)c(=O)n(C)c1)C2c1ccc(Cl)cc1 (stereo not shown) [Example 15, 6-(4-chlorophenyl)-5-(1,5-dimethyl-6-oxo-1,6-dihydropyridin-3-yl)-3-(2-methoxypyridin-3-yl)-1-methyl-5,6-dihydropyrrolo[3,4-c]pyrazol-4(1H)-one]	65.5 nM	67.8 nM	640 nM	54.6 nM	143 nM	>10000 nM	92.4 nM
COc1ncccc1-c1nn(C)c2c1C(=O)N(c1cc(C)c(=O)n(C)c1)[C@@H]2c1ccc(Cl)cc1 [Example 16, (R)-6-(4-chlorophenyl)-5-(1,5-dimethyl-6-oxo-1,6-dihydropyridin-3-yl)-3-(2-methoxypyridin-3-yl)-1-methyl-5,6-dihydropyrrolo[3,4-c]pyrazol-4(1H)-one]	52 nM	43 nM	197 nM	23.6 nM	92.2 nM	>10000 nM	43.7 nM
Cc1nn(-c2cccnc2F)c2c1C(=O)N(c1cc(C)c(=O)n(C)c1)C2c1ccc(Cl)cc1 (stereo not shown) [Example 19, 6-(4-chlorophenyl)-5-(1,5-dimethyl-6-oxo-1,6-dihydropyridin-3-yl)-1-(2-fluoropyridin-3-yl)-3-methyl-5,6-dihydropyrrolo[3,4-c]pyrazol-4(1H)-one]	73 nM	91 nM	302 nM	50.5 nM	164 nM	>10000 nM	79.8 nM

Continued, in another order:

IC50 (BRD3 (His-Brd3(20-477)))	GI50 (THP-1 cells)	GI50 (K-562 cells)	GI50 (MV-4-11 cells)	Structure (SMILES)	THP-1 TGI (THP-1 cells)	K-562 TGI (K-562 cells)	MV-4-11 TGI (MV-4-11 cells)
46 nM	72.4 nM	154 nM	27 nM	COc1ncccc1-n1nc2c(c1C)C(=O)N(c1cc(C)c(=O)n(C)c1)C2c1ccc(Cl)cc1 (stereo not shown) [Example 17b, 6-(4-chlorophenyl)-5-(1,5-dimethyl-6-oxo-1,6-dihydropyridin-3-yl)-2-(2-methoxypyridin-3-yl)-3-methyl-5,6-dihydropyrrolo[3,4-c]pyrazol-4(2H)-one]	117 nM	>10000 nM	34.3 nM
39 nM	44 nM	149 nM	16.9 nM	CCOc1ncccc1-n1nc2c(c1C)C(=O)N(c1cc(C)c(=O)n(C)c1)C2c1ccc(Cl)cc1 (stereo not shown) [Example 18b, 6-(4-chlorophenyl)-5-(1,5-dimethyl-6-oxo-1,6-dihydropyridin-3-yl)-2-(2-ethoxypyridin-3-yl)-3-methyl-5,6-dihydropyrrolo[3,4-c]pyrazol-4(2H)-one]	93.1 nM	>10000 nM	31.3 nM
50 nM	104 nM	236 nM	49.6 nM	COc1ccc(-n2nc3c(c2C)C(=O)N(c2cc(C)c(=O)n(C)c2)C3c2ccc(Cl)cc2)cn1 (stereo not shown) [Example 20a, 6-(4-chlorophenyl)-5-(1,5-dimethyl-6-oxo-1,6-dihydropyridin-3-yl)-2-(6-methoxypyridin-3-yl)-3-methyl-5,6-dihydropyrrolo[3,4-c]pyrazol-4(2H)-one]	178 nM	>10000 nM	65 nM
48 nM	93.1 nM	239 nM	38.6 nM	COc1ccc(-n2nc(C)c3c2C(c2ccc(Cl)cc2)N(c2cc(C)c(=O)n(C)c2)C3=O)cn1 (stereo not shown) [Example 20b, 6-(4-chlorophenyl)-5-(1,5-dimethyl-6-oxo-1,6-dihydropyridin-3-yl)-1-(6-methoxypyridin-3-yl)-3-methyl-5,6-dihydropyrrolo[3,4-c]pyrazol-4(1H)-one]	156 nM	>10000 nM	54.2 nM
